Patent publication US20080194456A1, “Compositions And Methods Related To An Intestinal Inflammation And Uses Therefor” (The General Hospital Corporation, priority 2004, published 2008)

Assays:
[1] = tested on: NOD2 mRNA expression in SW480 cells; assay: Northern blot analysis of NOD2 mRNA expression in SW480 cells; format: cell-based, human
Protocol: FIGS. 8A-8D are photographs of Northern blots showing the effect of cytokines on Nod2 mRNA expression in SW480 cells. FIG. 8A is a Northern blot analysis of Nod2 mRNA expression in SW480 cells treated with 10 ng/ml of IFNγ, TNFα, IL-1β, IL-4 and TGFβ for six hours. As a positive control for CARD15/NOD2, human PBMC was used. […] In each of FIGS. 8A-8C, expression of Nod2 is shown relative to GAPDH expression.
Regulation of NOD2 expression had not been previously characterized. In order to better understand how NOD2 expression might vary in the context of mucosal inflammation, the effects of cytokines on epithelial NOD2 expression were studied using the SW480 cell line.

[2] = tested on: grim-19 mRNA in Caco-2 cells; assay: Real time RT-PCR of grim-19 mRNA in Caco-2 cells; format: cell-based, human; settings: for grim-19 mRNA levels: Caco-2 cells harboring plasmid encoding siRNA
Protocol: Total RNA of IEC lines were extracted using Trizol (INVITROGEN) according to the manufacturer's instructions. For reverse transcription, 2 μg of total RNA was transcribed with RT PCR reagents provided in the SUPERSCRIPT FIRST-STRAND SYNTHESIS SYSTEM (INVITROGEN). Real time RT-PCR was performed in an ABI Prism 7000 Sequence Detector using SYBR Green JumpStart™ detection system. Briefly, 50 ng of the reversed transcribed cDNA were used for each PCR reaction with 200 nM of forward and reverse primers. Primers used for PCR had the following sequences: Forward 5-[…]-3, Reverse 5-[…]-3 (GRIM-19, 194 bp); Forward 5-[…]-3, Feverse 5-[…]-3 (glyceraldehyde-3-phosphate dehydrogenase [GAPDH], 440 bp). The following PCR program was used: 50° C. for 2 minutes, then 95° C. for 10 minutes followed by 40 cycles of 95° C. for 15 seconds, 60° C. for 15 seconds and 72° C. for 15 seconds. The threshold cycle (CT) values were obtained for the reactions reflecting quantity of the template in the sample. GRIM-19 Delta CT (ΔCT) was calculated by subtracting the GAPDH CT value from the GRIM-19 CT value and thus, represented the relative quantity of the target molecule after normalizing with the internal standard GAPDH. The GRIM-19 ΔCT values of Caco-2 cells infected with Salmonella, or transfected with pcDNA4/HisMAX-GRIM 19 were expressed as the percentage of GRIM-19 ΔCT values of control Caco-2 cells.

S. typhimurium [3] = settings: for percentage of intracellular bacteria: transfected Caco-2 cells, two hour infection at MOI=10, one hour gentamicin, relative to untransfected Caco-2 cells = 100%, mean ±SEM
[4] = tested on: NOD1 mRNA expression in SW480 cells; assay: Northern blot analysis of NOD1 mRNA expression in SW480 cells treated with cytokines; format: cell-based, human; settings: 10 ng/ml cytokine for six hours, Northern blot relative to GAPDH
Protocol: FIGS. 3A, B, C, D, E, and F are photographs showing Northern blots. […] Cells were treated with IFNγ for six hours. […] Cells were treated with 100 ng/ml IFNγ.
Regulation of NOD1 expression had not been described previously. […] The effect of IFNγ on NOD1 mRNA expression is time and concentration dependent manner as assessed by Northern blot analysis (FIG. 3C-3E).

S. typhimurium [5] = assay: Bacterial invasion assay in HEK293 cells; format: cell-based, Salmonella enterica serovar Typhimurium; settings: MDP-LD stimulated, two hour infection at MOI=10, compared to untransfected HEK293
Protocol: (§1) FIGS. 19A and 19B are graphs showing that GRIM-19 acts downstream of NOD2 and is required from NF-κB activation. […] NF-κB activity was determined in the absence or presence of 1 μg of MDP-LD. grim-19 mRNA level was measured by RT-PCR using specific primers. […] After a two hour period of infection with S. typhimurium at MOI=10, invasive bacteria were quantified as described above. * p<0.05
Invasion assays were performed with Salmonella enterica serovar Typhimurium or Escherichia coli TOP10 (Invitrogen). Cell monolayers were seeded in 24-well tissue culture plate with 10^5 cells/well and incubated for 20 hours. Monolayers were then infected in 1 ml of cell culture medium without antibiotic and with heat-inactivated FCS at a multiplicity of infection (MOI) of 10 bacteria per epithelial cell. After a two hour incubation period at 37° C., the monolayers were washed two times with PBS. Fresh cell culture medium containing 100 μg/ml of gentamicin (Sigma) was then added for one hour to kill any extracellular bacteria. The epithelial cells were then lysed with 1% Triton X-100 in deionized water. Samples of cell lysates were diluted and plated onto Luria-Bertani agar plates to determine the number of colony forming units (cfu), which corresponds to the number of intracellular bacteria.

Caco-2 cells = Caco-2 cells transfected (overexpression), adenylate kinase release
[6] = tested on: NOD2 protein in SW480 cells; assay: Western blot of NOD2 protein in SW480 cells; format: cell-based, human; settings: TNFα stimulation, time-dependent
Description: FIGS. 9A-9D depict NOD2 protein and its expression in SW480 cells. FIG. 9A is a schematic diagram showing the location of polypeptide sequences of NOD2 for immunization. FIGS. 9B, 9C, and 9D are photographs of Western blots. […] Untransfected COS7 cells were used as a negative control. […] Transiently transfected COS7 cells were immunoprecipitated with affinity purified (a.p.) anti-NOD2 antiserum (HM2559 a.p.), then immunoblotted with affinity purified biotinylated anti-NOD2 antiserum (b-HM2563 a.p.). […] As a positive control for NOD2 protein, lysates of COS7 cells transfected with pCMV FLAG-NOD2 was used.
Previous reported efforts had not been successful in detecting active NOD2 protein in vitro or in vivo. To detect the expression of active CARD15/NOD2 protein, anti-NOD2 sera (FIG. 9A) were generated. […] Increased production of TNFα has been noted in the mucosa of patients with Crohn's disease.

[7] = tested on: NOD2 mediated NF-κB activation; assay: NF-κB activation assay (luciferase reporter) in HEK293 cells; format: cell-based, human; settings: HEK293 transfected with NOD2, 1 μg MDP-LD stimulation; relative to HEK293 transfected only with NOD2 or with pSUPER control vector
Protocol: as §1
HEK293 cells were transfected overnight with 1 ng of NOD2, 10 ng of grim-19 siRNA plus 1 ng of pIV luciferase reporter plasmid and renilla plasmid. At the same time, 1 μg of MDP-LD (Sigma) was added. After twenty-four hours, luciferase activity was measured using the Dual-Luciferase Reporter Assay System (Promega, Madison, Wis.) according to the manufacturer's instructions and normalized relative to renilla activity.

[8] = tested on: grim-19 mRNA in HEK293 cells; assay: RT-PCR of grim-19 mRNA in HEK293 cells; format: cell-based, human; settings: HEK293 cells transfected with NOD2 and siRNA
Protocol: as §1
Total RNA of IEC lines were extracted using Trizol (INVITROGEN) according to the manufacturer's instructions. For reverse transcription, 2 μg of total RNA was transcribed with RT PCR reagents provided in the SUPERSCRIPT FIRST-STRAND SYNTHESIS SYSTEM (INVITROGEN). Real time RT-PCR was performed in an ABI Prism 7000 Sequence Detector using SYBR Green JumpStart™ detection system. […] The threshold cycle (CT) values were obtained for the reactions reflecting quantity of the template in the sample. GRIM-19 Delta CT (ΔCT) was calculated by subtracting the GAPDH CT value from the GRIM-19 CT value and thus, represented the relative quantity of the target molecule after normalizing with the internal standard GAPDH. The GRIM-19 ΔCT values of Caco-2 cells infected with Salmonella, or transfected with pcDNA4/HisMAX-GRIM 19 were expressed as the percentage of GRIM-19 ΔCT values of control Caco-2 cells.

human NOD1 promoter = assay: NOD1 promoter luciferase reporter assay in SW480 cells; format: cell-based; settings: SW480 cells transfected with pGL-2128, 100 ng/ml IFNγ for sixteen hours
Protocol: FIGS. 5A-5D are panels showing that IFNγ activated the human NOD1 promoter. FIG. 5A is a schematic diagram depicting the CARD4/NOD1 gene. Three IRF-1 binding motifs (IRF-1A, IRF-1B, and IRF-1C) are indicated as black boxes (▪). FIG. 5B is a schematic diagram depicting pGL Nod 1-luciferase deletion mutants. FIGS. 5C and 5D are graphs showing luciferase activity in SW480 cells were transiently transfected with 500 ng/well of the indicated expression plasmid. Ten hours after transfection, cells were cultured for a further sixteen hours with 100 ng/ml of IFNγ and then luciferase activity was measured. Black bars indicate the presence of IFNγ. White bars indicate the control conditions.
To identify the transcriptional regulation of NOD1, a series of luciferase reporter vectors was constructed, containing up to 2,128 base pairs corresponding to the DNA sequence upstream of base 1 and extending 21 base pairs into the first exon of NOD1 (FIGS. 5A and 5B). Luciferase activity in SW480 cells transfected with a vector containing the entire 2,128 base pairs upstream DNA (pGL-2128) was 125±16 fold higher than that obtained with the empty pGL3 basic vector.

[9] = tested on: NOD1 protein in SW480 cells; assay: Immunoprecipitation / Western blot of NOD1 protein in SW480 cells; format: cell-based, human; settings: 100 ng/ml IFNγ, 6-48 hours, immunoprecipitation and immunoblot
Description: FIGS. 4A and 4B are photographs of Western blots. […] Anti-HA monoclonal antibody and biotinylated anti-CARD4/NOD1 antiserum (HM3847) detected NOD1 protein in COS7 cells transiently transfected with pCl CARD4-HA. […] Lysates from COS7 cells transiently transfected with pCl CARD4-HA were used as positive control.
To investigate the expression of NOD1 protein, anti-NOD1 sera were generated. The specificity and the sensitivity were confirmed using lysates from COS7 cells transiently transfected with the HA tagged CARD4 expression plasmid, pCl CARD4-HA (FIG. 4A). Consistent with the regulation of mRNA expression, NOD1 protein was also augmented in SW480 cells by IFNγ stimulation (FIG. 4B).

C[C@@H]1C[C@@H]([C@H](O)CC2CC(=O)NC(=O)C2)C(=O)[C@@H](C)C1 [Cycloheximide]
second peak of NOD2 mRNA expression (at twenty-four hours) ([1]; SW480 cells stimulated with 10 ng/ml TNFα): inhibited

IFN-α
grim-19 mRNA expression ([2]; Caco-2 cells stimulated with RA, IFN-α or both, real time RT-PCR): did not show increased GRIM-19 expression
percentage of intracellular bacteria / invasive ability of S. typhimurium (S. typhimurium [3]; Caco-2 cells stimulated with RA, IFN-α or both, two hour incubation): remained the same

IL-β: cytokine as printed in b202; figure legend b47 names IL-1β
NOD1 mRNA expression [4]: did not affect

NOD2: NOD2 protein expressed from Flag-tagged mammalian expression vector pCMVFlag-NOD2
invasive ability of S. typhimurium (S. typhimurium [5]): decreased
cell death (Caco-2 cells): did not induce cell death

TGFβ
NOD1 mRNA expression [4]: did not affect

TNFα
NOD2 protein [6]: upregulated
NOD2 mRNA expression ([1]; SW480 cells, TNFα, concentration and time-dependent): up-regulated

grim-19 control siRNA: grim-19 control siRNA (sequence 2, atcgaggacttcgaggctc), which did not affect grim-19 mRNA (guide ATCGAGGACTTCGAGGCTC; chemistry not given here) [reference compound]
grim-19 mRNA levels [2]: did not affect
percentage of intracellular bacteria (S. typhimurium [3]): not observed
NF-κB activation [7]: no significant effect
grim-19 mRNA level [8]: did not knockdown

grim-19 siRNA-1: siRNA expressed from pSUPER vector, 19-residue sequence 1-gtgtgggatactgcgagta specific to human grim-19 cDNA (guide GTGTGGGATACTGCGAGTA; expressed from pSUPER vector)
grim-19 mRNA levels [2]: significantly decreased
invasive ability of S. typhimurium (S. typhimurium [5]): reversed
invasive ability of S. typhimurium in stimulated Caco-2 cells (S. typhimurium [3]; Caco-2 cells stimulated with RA and IFN-α, compared with non-stimulated cells): restored
percentage of intracellular bacteria (S. typhimurium [3]): 162.0%±43.8%
NF-κB activation [7]: 50%
grim-19 mRNA level [8]: significantly decreased

B1: IFNγ: cytokine interferon gamma added to SW480 cells (protein, UniProt P01579 24-161, looked up)
Interferon gamma: QDPYVKEAENLKKYFNAGHSDVADNGTLFLGILKNWKEESDRKIMQSQIVSFYFKLFKNFKDDQSIQKSVETIKEDMNVKFFNSNKKKRDDFEKLTNYSVTDLNVQRKAIHELIQVMAELSPAAKTGKRKRSQMLFRG
NOD1 mRNA expression [4]: augmented
increase of luciferase activity (human NOD1 promoter): 80%
NOD1 protein [9]: augmented

B2: IL-4: cytokine added to SW480 cells (protein, UniProt P05112 25-153, looked up)
Interleukin-4: HKCDITLQEIIKTLNSLTEQKTLCTELTVTDIFAASKNTTEKETFCRAATVLRQFYSHHEKDTRCLGATAQQFHRHKQLIRFLKRLDRNLWGLAGLNSCPVKEANQSTLENFLERLKTIMREKYSKCSS
NOD1 mRNA expression [4]: did not affect

B3: TNFβ: cytokine as printed in b202; figure legend b47 names TNFα (protein, UniProt P01374 35-205, looked up)
Lymphotoxin-alpha: LPGVGLTPSAAQTARQHPKMHLAHSTLKPAAHLIGDPSKQNSLLWRANTDRAFLQDGFSLSNNSLLVPTSGIYFVYSQVVFSGKAYSPKATSSPLYLAHEVQLFSSQYPFHVPLLSSQKMVYPGLQEPWLHSMYHGAAFQLTQGDQLSTHTDGIPHLVLSPSTVFFGAFAL
NOD1 mRNA expression [4]: did not affect
